This note sets out measurements from patent US7557110B2, “Pyrazolo[1,5-A] pyrimidine derivatives” (Teijin Pharma Limited, priority 2003, dated 2009).

The target of one series is CDK-1 (Homo sapiens, UniProt P06493). Put plainly: CDK-1 enzyme activity inhibition (33P-ATP filter plate kinase assay).
In a further series the target is CDK-2 (Homo sapiens, UniProt P24941). Put plainly: CDK-2 enzyme activity inhibition (33P-ATP filter plate kinase assay). The settings on record: read-out: CDK-2 inhibition IC50. It is filed as biochemical. The source says:
[General Procedure for Measurement of CDK-2 Enzyme Activity Inhibition]

A further series addresses MAPKAP-K2 (Homo sapiens, UniProt P49137). The series is described as follows: MAPKAP-K2 enzyme activity inhibition (33P-ATP filter plate kinase assay). Further: key: +: active; ++: more active; +++: very active. Format: biochemical. Conditions: MAPKAP-K2 inhibitory activity; assays conducted at typically 1-100 μM.

Sequence of MAPKAP-K2 (P49137 whole entry): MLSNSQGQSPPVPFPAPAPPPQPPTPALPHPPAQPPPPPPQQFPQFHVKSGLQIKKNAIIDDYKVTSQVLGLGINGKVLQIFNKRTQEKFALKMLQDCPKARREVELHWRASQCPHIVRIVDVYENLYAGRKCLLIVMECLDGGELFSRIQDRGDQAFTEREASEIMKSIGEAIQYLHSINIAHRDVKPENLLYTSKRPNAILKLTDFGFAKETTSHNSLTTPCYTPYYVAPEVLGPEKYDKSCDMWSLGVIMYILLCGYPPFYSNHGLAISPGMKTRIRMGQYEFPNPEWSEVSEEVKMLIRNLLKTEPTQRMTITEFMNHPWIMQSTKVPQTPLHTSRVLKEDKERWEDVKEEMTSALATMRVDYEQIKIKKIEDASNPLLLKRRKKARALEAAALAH
Sequence of CDK-1 (P06493 whole entry, species assumed): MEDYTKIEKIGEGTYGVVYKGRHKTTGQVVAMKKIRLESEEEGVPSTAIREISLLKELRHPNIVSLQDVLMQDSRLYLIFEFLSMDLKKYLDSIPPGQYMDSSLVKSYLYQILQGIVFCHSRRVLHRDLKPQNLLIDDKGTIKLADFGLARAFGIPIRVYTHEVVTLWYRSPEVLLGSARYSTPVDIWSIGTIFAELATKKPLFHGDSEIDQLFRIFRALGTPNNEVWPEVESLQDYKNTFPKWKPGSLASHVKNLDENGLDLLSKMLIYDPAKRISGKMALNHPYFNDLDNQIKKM
Sequence of CDK-1 (P14635 whole entry partner, species assumed): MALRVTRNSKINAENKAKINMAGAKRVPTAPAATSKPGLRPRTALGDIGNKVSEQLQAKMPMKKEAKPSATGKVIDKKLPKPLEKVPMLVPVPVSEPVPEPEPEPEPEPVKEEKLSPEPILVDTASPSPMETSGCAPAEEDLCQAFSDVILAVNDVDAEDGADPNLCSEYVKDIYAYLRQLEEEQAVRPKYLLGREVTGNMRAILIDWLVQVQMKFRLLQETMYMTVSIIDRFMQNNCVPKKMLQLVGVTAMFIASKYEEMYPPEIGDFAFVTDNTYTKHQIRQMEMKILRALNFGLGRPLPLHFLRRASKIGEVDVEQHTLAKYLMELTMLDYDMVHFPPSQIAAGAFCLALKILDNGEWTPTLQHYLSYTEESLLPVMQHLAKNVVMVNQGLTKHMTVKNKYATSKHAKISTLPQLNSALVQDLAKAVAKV
Procedure for CDK-1: [General Procedure for Measurement of CDK-1 Enzyme Activity Inhibition]
Compounds were dissolved in DMSO at a concentration of 10 mM and stored in aliquots at −20° C. Compounds in DMSO from these stock aliquots were diluted in DMSO to produce the required range of 30× stock solutions. These stock solutions were then subjected to 1:3 dilutions in order to prepare the required range of 10× stock solutions and 5 μL of each solution was used per 50 μL reaction.
The kinase reaction was conducted in a round-bottomed polypropylene 96-well plate. CDK-1 was diluted to 0.5 U/μL in diluent buffer (50 mM Tris/HCl. pH7.5, 0.1 mM EGTA, 0.1% (v/v) β-mercaptoethanol, 1 mg/mL BSA). 5 μL compound or 30% DMSO was added to each well followed by 25 μL substrate cocktail (final concentration: 10 μM ATP, 50 μM peptide ([sequence]), 0.5 μCi ^33P-γ-ATP in 50 mM Tris-HCl (pH 7.5), 1 mM EGTA, 2 mM DTT, 10 mM MgCl2, 0.01% Brij-35). The reaction was initiated with the addition of 20 μL enzyme solution per well or 20 μL of diluent buffer without enzyme. The plate was shaken for 10 seconds and then left at room temperature for 15 minutes. The reaction was terminated with 50 μL 150 mM phosphoric acid. 90 μL of the reaction mixture was then transferred into a 96-well P81 filter plate (Whatmann) and incubated at room temperature for 5 minutes. The filter plate was then washed 4 times with 200 μL 75 mM phosphoric acid per well on a plate vacuum manifold (Millipore) and dried in an oven for 2-3 hours. Packard MicroScint ‘0’ (30 μL) was then added to each well, the plate was miffed for 30 minutes and subjected to liquid scintillation counting on a Packard TopCount.

For the compound `CCOc1ccc(Nc2c(CC)c(N[C@H]3CC[C@H](N)CC3)nc3ccnn23)cc1` [Compound 31], the melting point is 131 to 133 °C. On CDK-1, the IC50 is less than 100 µM. Besides, at CDK-2, the IC50 is less than 100 µM. In addition, the “activity (efficacy against MAPKAP-K2)” value on MAPKAP-K2 is reported as “+++”.

For `CCc1c(N[C@H]2CC[C@H](N)CC2)nc2ccnn2c1Nc1ccc(OCc2ccccc2)cc1` [Compound 35], the melting point lay in the range of 120 to 122 °C. At CDK-1, this compound had an IC50 of less than 100 µM. In addition, at CDK-2, the IC50 is less than 100 µM. For the same compound, the “activity (efficacy against MAPKAP-K2)” value on MAPKAP-K2 was “+++”.
